Results taken from paper PMC7587962, “Evaluation of Cytotoxicity and α-Glucosidase Inhibitory Activity of Amide and Polyamino-Derivatives of Lupane Triterpenoids” (Molecules, 2020).
Where two headings read alike, the source gives them in different places.

What was measured:
HOP-92 = assay: NCI-60 SRB screen: non-small cell lung cancer HOP-92; assay type: cell-based, human; conditions: HOP-92
SK-MEL-28 = assay: NCI-60 SRB screen: melanoma SK-MEL-28; assay type: cell-based, human; conditions: SK-MEL-28
RXF 393 = assay: NCI-60 SRB screen: renal cancer RXF 393; assay type: cell-based, human; conditions: RXF 393
OVCAR-4 = assay: NCI-60 SRB screen: ovarian cancer OVCAR-4; assay type: cell-based; conditions: Homo sapiens; OVCAR-4; five concentrations, 48 h, SRB; read-out: GI50
UO-31 = assay: NCI-60 SRB screen: renal cancer UO-31; assay type: cell-based, human; conditions: UO-31
Melanoma subpanel = assay: NCI-60 screen, subpanel Melanoma
TK-10 = assay: NCI-60 SRB screen: renal cancer TK-10; assay type: cell-based, human; conditions: TK-10
HCC-2998 = assay: NCI-60 SRB screen: colon cancer HCC-2998; assay type: cell-based, human; conditions: HCC-2998
IGROV1 = assay: NCI-60 SRB screen: ovarian cancer IGROV1; assay type: cell-based, human; conditions: IGROV1
COLO 205 = assay: NCI-60 SRB screen: colon cancer COLO 205; assay type: cell-based, human; conditions: COLO 205
NCI-H522 = assay: NCI-60 SRB screen: non-small cell lung cancer NCI-H522; assay type: cell-based, human; conditions: NCI-H522
Ovarian Cancer subpanel = assay: NCI-60 screen, subpanel Ovarian Cancer
HL-60(TB) = assay: NCI-60 SRB screen: leukemia HL-60(TB); assay type: cell-based; conditions: Homo sapiens, 48 h, HL-60(TB)
Colon Cancer subpanel = assay: NCI-60 screen, subpanel Colon Cancer
HOP-62 = assay: NCI-60 SRB screen: non-small cell lung cancer HOP-62; assay type: cell-based, human; conditions: HOP-62
PC-3 = assay: NCI-60 SRB screen: prostate cancer PC-3; assay type: cell-based, human; conditions: PC-3
RPMI-8226 = assay: NCI-60 SRB screen: leukemia RPMI-8226; assay type: cell-based; conditions: Homo sapiens, 48 h, RPMI-8226
Breast cancer subpanel = assay: NCI-60 screen, subpanel Breast cancer
SK-MEL-2 = assay: NCI-60 SRB screen: melanoma SK-MEL-2; assay type: cell-based, human; conditions: SK-MEL-2
NSCL cancer subpanel = assay: NCI-60 screen, subpanel NSCL cancer
MDA-MB-468 = assay: NCI-60 SRB screen: breast cancer MDA-MB-468; assay type: cell-based, human
NCI-H460 = assay: NCI-60 SRB screen: non-small cell lung cancer NCI-H460; assay type: cell-based; conditions: Homo sapiens, 48 h, NCI-H460
SF-539 = assay: NCI-60 SRB screen: CNS cancer SF-539; assay type: cell-based, human; conditions: SF-539
A498 = assay: NCI-60 SRB screen: renal cancer A498; assay type: cell-based, human; conditions: A498
OVCAR-5 = assay: NCI-60 SRB screen: ovarian cancer OVCAR-5; assay type: cell-based, human; conditions: OVCAR-5
SR = assay: NCI-60 SRB screen: leukemia SR; assay type: cell-based; conditions: Homo sapiens, 48 h
T-47D = assay: NCI-60 SRB screen: breast cancer T-47D; assay type: cell-based, human; conditions: T-47D
CNS cancer subpanel = assay: NCI-60 screen, subpanel CNS cancer
[1] = test system: 60 human tumor cell lines; conditions: single dose 10 µM
[2] = test system: 60 human tumor cell lines; assay: cells
SK-OV-3 = assay: NCI-60 SRB screen: ovarian cancer SK-OV-3; assay type: cell-based, human; conditions: SK-OV-3
SF-268 = assay: NCI-60 SRB screen: CNS cancer SF-268; assay type: cell-based, human; conditions: SF-268
NCI-H322M = assay: NCI-60 SRB screen: non-small cell lung cancer NCI-H322M; assay type: cell-based, human
SNB-75 = assay: NCI-60 SRB screen: CNS cancer SNB-75; assay type: cell-based, human; conditions: SNB-75
[3] = Homo sapiens, five concentrations, 48 h, SRB, read-out: GI50
[4] = single dose 10 µM, read-out: Percentage Cell Growth
[5] = five concentrations, SRB, read-out: GI50

C=C(C)[C@@H]1CC[C@]2(C(=O)OC)CC[C@]3(C)[C@H](CC[C@@H]4[C@@]5(C)CCC(=NOCCC(=NOCCC#N)NCCC#N)C(C)(C)[C@@H]5CC[C@]43C)[C@@H]12 [Compound 21]
Percentage Cell Growth (HOP-92; single dose 10 µM): −14.95% | GI50 (HOP-92; [3]): 6.9 µM | GI50 (SK-MEL-28; [3]): 17.1 µM | Percentage Cell Growth (SK-MEL-28; single dose 10 µM): 29.25% | GI50 (RXF 393; [3]): 5.64 µM | Percentage Cell Growth (RXF 393; single dose 10 µM): −43.14% | GI50 (OVCAR-4): 12.3 µM | GI50 (UO-31; [3]): 15.6 µM | Percentage Cell Growth (UO-31; single dose 10 µM): 19.03% | MID b, average sensitivity of all cell line of particular subpanel (Melanoma subpanel): 8.81 µM | Selectivity, ratio MID a: MID b (Melanoma subpanel): 1.16 | GI50 (TK-10; [3]): 13.8 µM | Percentage Cell Growth (TK-10; single dose 10 µM): 37.88% | Percentage Cell Growth (HCC-2998; single dose 10 µM): 26.92% | GI50 (HCC-2998; [3]): 13.8 µM | GI50 (IGROV1; Homo sapiens, IGROV-1, five concentrations, 48 h, SRB, read-out: GI50): 14.9 µM | Percentage Cell Growth (IGROV1; single dose 10 µM): 18.78% | Percentage Cell Growth (COLO 205; single dose 10 µM): 17.60% | GI50 (COLO 205; [3]): 9.02 µM | GI50 (NCI-H522; [3]): 8.34 µM | Percentage Cell Growth (NCI-H522; single dose 10 µM): 13.36% | MID b, average sensitivity of all cell line of particular subpanel (Ovarian Cancer subpanel): 11.86 µM | Selectivity, ratio MID a: MID b (Ovarian Cancer subpanel): 0.86 | activity at 10 µM (HL-60(TB); [4]): 0.9% | GI50 (HL-60(TB); [5]): 5.18 µM | MID b, average sensitivity of all cell line of particular subpanel (Colon Cancer subpanel): 7.42 µM | Selectivity, ratio MID a: MID b (Colon Cancer subpanel): 1.38 | Percentage Cell Growth (HOP-62; single dose 10 µM): 32.54% | GI50 (HOP-62; [3]): 12.5 µM | GI50 (PC-3; [3]): 2.26 µM | Percentage Cell Growth (PC-3; single dose 10 µM): 4.49% | activity at 10 µM (RPMI-8226; [4]): 3.28% | GI50 (RPMI-8226; [5]): 4.91 µM | MID b, average sensitivity of all cell line of particular subpanel (Breast cancer subpanel): 10.16 µM | Selectivity, ratio MID a: MID b (Breast cancer subpanel): 1.00 | GI50 (SK-MEL-2; [3]): 13.8 µM | Percentage Cell Growth (SK-MEL-2; single dose 10 µM): 36.23% | MID b, average sensitivity of all cell line of particular subpanel (NSCL cancer subpanel): 12.43 µM | Selectivity, ratio MID a: MID b (NSCL cancer subpanel): 0.83 | GI50 (MDA-MB-468; [3]): 2.02 µM | Percentage Cell Growth (MDA-MB-468; single dose 10 µM): 4.41% | activity at 10 µM (NCI-H460; [4]): 4.23% | GI50 (NCI-H460; [5]): 11.1 µM | GI50 (SF-539; [3]): 11 µM | Percentage Cell Growth (SF-539; single dose 10 µM): −2.29% | Percentage Cell Growth (A498; single dose 10 µM): −0.38% | GI50 (A498; [3]): 21.7 µM | GI50 (OVCAR-5; [3]): 16.7 µM | Percentage Cell Growth (OVCAR-5; single dose 10 µM): 50.59% | activity at 10 µM (SR; [4]): 1.86% | GI50 (SR; [5]): 2.87 µM | GI50 (T-47D; Homo sapiens, T47D, five concentrations, 48 h, SRB, read-out: GI50): 3.47 µM | Percentage Cell Growth (T-47D; single dose 10 µM): 15.11% | MID b, average sensitivity of all cell line of particular subpanel (CNS cancer subpanel): 15.32 µM | Selectivity, ratio MID a: MID b (CNS cancer subpanel): 0.67 | cancer cell lethality, range of percentage growth ([1]; cell lines with negative growth): −0.38% to −84.68% | cases of cancer cell lethality ([1]; number of cell lines): 11 | GI50 ([2]; read-out: GI50 ranges against all panels of NCI60): 2.02 to 50 µM | GI50 ([2]; read-out: MID a, average sensitivity of all cell line (GI50-MID)): 10.2 µM | GI50 (SK-OV-3; [3]): 10.8 µM | Percentage Cell Growth (SK-OV-3; single dose 10 µM): 34.60% | GI50 (SF-268; [3]): 11.4 µM | Percentage Cell Growth (SF-268; single dose 10 µM): 29.14% | GI50 (NCI-H322M; [3]): > 50 µM | Percentage Cell Growth (NCI-H322M; single dose 10 µM): 46.12% | GI50 (SNB-75; [3]): 31.2 µM | Percentage Cell Growth (SNB-75; single dose 10 µM): 18.44%
